Data from patent US20260248881A1, “PHARMACEUTICAL COMPOSITION COMPRISING FOXM1 INHIBITOR AND IMMUNE CHECKPOINT INHIBITOR FOR PREVENTING OR TREATING CANCER” (National Cancer Center, priority 2022, published 2026).

Assays:
[1] = tested on: H1299 and PC9 cells; assay: Cell cycle distribution analysis (PI staining, flow cytometry); type: cell-based, human
Procedure: Both H1299 and PC9 cells were enzymatically dissociated using TrypLE (#12605-010; Thermo Fisher Scientific), collected by centrifugation at 2,000×g for 2 minutes, resuspended in PBS, fixed in 70% ethanol, and stored overnight at 4° C. Fixed cells were pelleted, washed twice with PBS, resuspended in FxCycle propidium iodide (PI)/RNase staining solution (#F10797; Thermo Fisher Scientific), and incubated in the dark at 37° C. for 30 minutes. Flow cytometry was performed using a FACS-LSR Fortessa flow cytometer (BD Biosciences, Santa Clara, CA, USA).

[2] = tested on: H1299 and PC9 cells; assay: Cell proliferation assay (WST-1); type: cell-based, human; conditions: 5 μM TST or siRNA knockdown; 24, 48, and 72 hours; both cell lines
Procedure: H1299 and PC9 cells were grown in 96-well plates, treated with 5 µM TST, or transfected with siFOXM1 at a density of 3,000 cells/well […]. Cell proliferation was recorded at the specified times by adding 4-[3-(4-iodophenyl)-2-(4-nitro-phenyl)-2H-5-tetrazolio]-1,3-benzene sulfonate) (WST-1, #MK400, TaKaRa Bio) at 37° C. for 2 hours, and absorbance was measured at 450 nm. All experiments were performed in quadruplicate.

[3] = tested on: Lewis lung carcinoma LLC-1; assay: Syngeneic tumor model using murine lung cancer cells LLC-1
Procedure: Lewis lung carcinoma LLC-1, murine lung cancer cells (5×10^5), were implanted subcutaneously in 5-week-old C57BL/6N mice (n=6 per group) (OrientBio, Seoul, Korea) and left for 10 days to form tumors with a volume of approximately 150 mm^3. […] Tumor volumes and body weights of the mice were measured every other day. On day 9, all the mice were sacrificed, and tumor tissues were collected, fixed in formalin, embedded in paraffin, and sectioned for IHC.
CD3^+ T-cells were detected (ab16669, Cambridge, UK) by anti-CD3 antibody Abcam, according to manufacturer's manuals. The positive signal intensity of CD3^+ T-cells was analyzed by using computer image analysis with ImageJ software (LOCI, University of Wisconsin), and the intensity of CD3^+ signals was calculated as a relative ratio of total positive area/total surface area. Pathological images were obtained from an Aperio VERSA slide scanning system (Leica Biosystems Imaging, Vista, CA, USA). At 100× magnification, three independent and intact computerized microscopic fields of each tissue sample were captured by Aperio Imagescope software (Leica Biosystems Imaging, Vista, CA, USA) and were used for analysis of signal intensity of CD3^+ cells in while microscopic fields.
The in vivo synergy between TST and anti-4-1BB antibody-treated groups was determined by calculating a coefficient of drug interaction (CDI), with CDI values<1, <0.7, =1, and >1 indicating synergy, significant synergy, additivity, and antagonism, respectively.
Lewis lung carcinoma (LLC-1) mouse lung cancer cells (5×10^5) were injected subcutaneously into C57BL/6N mice (n=6 per group) and allowed to form tumors with a volume of 150 mm^3 for 10 days.

[4] = tested on: H1299 and PC9 cells; assay: Apoptotic cell death assay (Annexin V/PI staining); type: cell-based, human; conditions: 5 μM TST or siFOXM1
Procedure: H1299 and PC9 cells (1×10^5) were cultured in 6-well plates, transfected with siFOXM1 or NC siRNA or treated with 5 μM TST or dimethyl sulfoxide (DMSO), and then stained using fluorescein isothiocyanate (FITC) Annexin V Apoptosis Detection Kit I (#556547; BD Biosciences). Cells were analyzed within 1 hour to reduce side effects due to staining, and flow cytometry was performed using a FACSVerse cell analyzer (BD Biosciences).

[5] = tested on: CD274 (PD-L1); assay: Semi-quantitative PCR of PD-L1 (CD274) transcript in H1299 and PC9 cells; type: cell-based, human; conditions: TST in the presence of IFN-γ
Procedure: H1299 and PC9 cells purchased from ATCC (Manassas, VA, USA) were cultured in RPMI-1640 medium (#10-040-CV; Corning, New York, NY, USA) supplemented with 10% […] (#35-010-CV; Corning) and penicillin-streptomycin antibiotic cocktail (#15240062; Thermo Fisher Scientific, Waltham, MA, USA) at 37° C. and 5% CO2.
H1299 and PC9 LUAD cells were transfected with 5 nM negative control (NC) or FOXM1 siRNA (siFOXM1) (QIAGEN, Hilden, Germany) using Lipofectamine RNAiMAX (#13778150; Thermo Fisher Scientific). Human FOXM1 isoform b (pFLAG-FOXM1)-expressing plasmid or empty vector (pFLAG-CMV; mock) was transfected into H1299 and PC9 cells using Lipofectamine 2000 reagent (#11668019; Thermo Fisher Scientific) according to the manufacturer's instructions.
Total RNA was extracted and purified using the RNeasy kit (#74004; QIAGEN) according to the manufacturer's protocol. Reverse transcription of mRNA was performed using a PrimeScript 1st Strand CDNA Synthesis Kit (#6110A; TaKaRa Bio, Otsu, Japan). Quantitative PCR was performed using primers specific for the CD274 and FOXM1 genes designed using Primer 3 software. A β-actin gene was used as an internal control group to normalize target gene expression.

[6] = cited from earlier work
[7] = vs NC siRNA or DMSO-treated group, time-dependent

thiostrepton [TST]
G2 population ([1]; both cell lines, vs DMSO-treated group): an increase in the G2 population | S phase population [1, 7]: decreased a S phase population | sub-G0/G1 population [1, 7]: increased the sub-G0/G1 population | cell proliferation [2]: decreased in a time-dependent manner | number of apoptotic tumor cells (TUNEL), vs control group ([3]; day 9): 2.46 fold | increase in CD3+ T cells in tumors, vs control group ([3]; immunohistochemical staining): 1.32 fold | tumor growth inhibition ([3]; treatment initiated at smaller tumor size (~80 mm^3), antibodies 0.2 mg/mouse): 63.1% | inhibition of tumor growth ([3]; tumors 150 mm^3 at start, TST 17 mg/kg, anti-4-1BB 0.2 mg/mouse, day 1, 3, 5, 7, vs control group): 48% | apoptotic cell population (annexin V/PI positive cells) [4]: significantly increased in a time-dependent manner | PD-L1 mRNA expression [5]: concentration-dependent decrease | solubility in water [6]: low solubility in water
